Experimental data: US9562034B2, “Endoparasite control agent” (The University of Tokyo, priority 2012, dated 2017)
Where two headings read alike, the source gives them in different places.

How the values were obtained:
[1] = biological target: T1, Ascaris suum succinate-ubiquinone reductase (mitochondrial complex II) (Ascaris suum, UniProt O44074+P92506+P92507); assay: In vitro inhibitory activity on Ascaris suum succinate-ubiquinone reductase (mitochondrial complex II); format: biochemical
T1 construct: from tissue; host or cells: mitochondria from adult Ascaris suum muscle
T1 sequence (O44074 22-282): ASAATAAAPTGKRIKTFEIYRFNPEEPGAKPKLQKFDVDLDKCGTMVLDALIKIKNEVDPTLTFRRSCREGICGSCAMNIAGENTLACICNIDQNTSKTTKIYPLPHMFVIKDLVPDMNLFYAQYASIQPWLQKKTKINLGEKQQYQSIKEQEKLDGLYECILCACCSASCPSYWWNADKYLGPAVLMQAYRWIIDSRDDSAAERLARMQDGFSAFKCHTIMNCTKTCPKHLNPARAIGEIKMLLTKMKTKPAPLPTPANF
T1 sequence (P92506 32-188): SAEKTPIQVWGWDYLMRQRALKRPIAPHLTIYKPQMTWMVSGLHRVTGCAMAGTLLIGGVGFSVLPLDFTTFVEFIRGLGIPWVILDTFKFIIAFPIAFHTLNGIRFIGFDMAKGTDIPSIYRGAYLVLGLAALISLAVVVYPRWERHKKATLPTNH
T1 sequence (P92507 26-156): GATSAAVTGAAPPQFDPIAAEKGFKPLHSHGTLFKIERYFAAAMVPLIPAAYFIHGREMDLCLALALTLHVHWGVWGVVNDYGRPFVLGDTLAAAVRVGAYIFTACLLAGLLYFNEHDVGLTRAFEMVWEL
T1 sequence (Q33862 19-645 partner): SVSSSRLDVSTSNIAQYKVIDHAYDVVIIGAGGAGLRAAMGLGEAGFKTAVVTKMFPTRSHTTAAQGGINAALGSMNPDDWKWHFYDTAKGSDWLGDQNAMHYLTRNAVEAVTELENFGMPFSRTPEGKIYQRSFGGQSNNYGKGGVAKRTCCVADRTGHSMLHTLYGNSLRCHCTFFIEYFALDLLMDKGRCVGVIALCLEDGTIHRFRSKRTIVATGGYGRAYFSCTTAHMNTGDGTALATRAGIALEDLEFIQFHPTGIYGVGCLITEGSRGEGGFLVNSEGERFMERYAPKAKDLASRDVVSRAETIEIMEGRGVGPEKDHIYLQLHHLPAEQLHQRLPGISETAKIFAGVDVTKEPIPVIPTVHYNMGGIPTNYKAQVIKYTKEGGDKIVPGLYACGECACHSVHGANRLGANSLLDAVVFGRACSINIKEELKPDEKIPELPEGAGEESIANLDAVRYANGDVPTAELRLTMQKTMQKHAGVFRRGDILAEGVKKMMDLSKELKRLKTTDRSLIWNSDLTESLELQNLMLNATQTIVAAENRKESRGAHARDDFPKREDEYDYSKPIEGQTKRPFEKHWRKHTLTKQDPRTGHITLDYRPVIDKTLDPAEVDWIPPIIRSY
Procedure: In Vitro Measurement of Inhibitory Activity on Ascaris suum Succinate-Ubiquinone Reductase (Mitochondrial Complex II)
To a solution containing 50 mM potassium phosphate (pH 7.4) and 0.1% (w/v) sucrose monolaurate, an electron acceptor ubiquinone-2 (UQ2) was added at a final concentration of 60 μM, and the mixture was allowed to stand at 25° C. for 20 minutes. To this, potassium cyanide (final concentration: 2 mM) and mitochondria prepared from adult Ascaris suum muscle were added, and thorough mixing was done. To aliquots of the mixture, an inhibitor to be tested was added at various concentrations, and the mixtures were allowed to stand at 25° C. for 3 minutes. The enzymatic reaction was initiated by addition of potassium succinate (final concentration: 10 mM).

[2] = system: Haemonchus contortus L1-stage larvae; assay: In vivo activity test on Haemonchus nematode (motor ability of L1-stage larvae, 96-well plate); conditions: twenty L1-stage larvae per well, 27° C./95% RH for 4 days, DMSO 0.78% (v/v)
Procedure: In Vivo Activity Test on Haemonchus Nematode
In a 96-well plate, twenty L1-stage larvae (Haemonchus contortus) per well were maintained so that they could freely move, and solutions of compounds of the present invention dissolved at predetermined concentrations in DMSO (the final concentration of DMSO was 0.78% (v/v)) were added at 0.5 μl/well each. The plate was kept under the conditions of 27° C./95% RH for 4 days. The motor ability of the larvae was examined and the concentration required for 50% inhibition of the motor ability (EC50) was determined. Based on the EC50 value, the activity against the Haemonchus nematode was graded according to the criterion shown below.
• A: The EC50 value is lower than 0.5 ppm. • B: The EC50 value is 0.5 ppm or higher but lower than 5 ppm. • C: The EC50 value is 5 ppm or higher.

[3] = mitochondria from adult Ascaris suum muscle, UQ2 60 μM, potassium succinate 10 mM, 25° C., absorbance at 278 nm, read-out: Ascaris suum IC50 value (A)

Structure (SMILES)	IC50 [1, 3] [nM]	Grade (EC50, concentration required for 50% inhibition of the motor ability) [2]	IC50 [1] [nM]
O=C(NCCc1ncc(C(F)(F)F)cc1Cl)c1cccnc1Cl [Compound 1]	47	A (The EC50 value is lower than 0.5 ppm.)	–
Nc1nc(C(F)(F)F)c(C(=O)NCCc2ccc(Cl)cc2Cl)s1 [Compound 2]	57	–	–
O=C(NCCc1ncc(C(F)(F)F)cc1Cl)c1nccnc1C(F)(F)F [Compound 3]	9.4	A (The EC50 value is lower than 0.5 ppm.)	–
O=C(NCCc1ccc(-c2ccc(OC(F)(F)F)cc2)cc1Cl)c1nccnc1C(F)(F)F [Compound 4]	1.3	–	–
Cc1nccnc1C(=O)NCCc1ccc(-c2ccc(OC(F)(F)F)cc2)cc1 [Compound 5]	26	–	–
O=C(NCCc1ccc(Cl)cc1Cl)c1cccnc1C(F)(F)F [Compound 6]	4.4	A (The EC50 value is lower than 0.5 ppm.)	–
O=C(NCCc1ccc(Cl)cc1Cl)c1sccc1C(F)(F)F [Compound 7]	1.1	A (The EC50 value is lower than 0.5 ppm.)	–
O=C(NCCc1ccc(Cl)cc1Cl)c1nccnc1C(F)(F)F [Compound 9]	–	A (The EC50 value is lower than 0.5 ppm.)	–
O=C(NCCc1ccc(F)cc1Cl)c1nccnc1C(F)(F)F [Compound 11]	3.4	–	–
O=C(NCC1(c2ccc(Cl)cc2Cl)CC1)c1nccnc1Cl [Compound 13]	2.7	A (The EC50 value is lower than 0.5 ppm.)	–
CC(Cc1ccc(Cl)cc1Cl)NC(=O)c1nccnc1Cl (stereo not drawn) [Compound 14]	3.3	–	–
CC(Cc1ccc(Cl)cc1Cl)NC(=O)c1nccnc1C(F)(F)F (stereo not drawn) [Compound 15]	–	A (The EC50 value is lower than 0.5 ppm.)	–
O=C(NCC1(c2ccc(Cl)cc2Cl)CC1)c1nccnc1C(F)(F)F [Compound 16]	1.5	A (The EC50 value is lower than 0.5 ppm.)	–
O=C(NCCc1ccc(-c2ccc(OC(F)(F)F)cc2)cc1F)c1nccnc1Cl [Compound 17]	–	A (The EC50 value is lower than 0.5 ppm.)	2
O=C(NC1(Cc2ccc(Cl)cc2Cl)CC1)c1nccnc1C(F)(F)F [Compound 18]	3.1	–	–
O=C(NCCc1ccc(C(F)(F)F)cc1Cl)c1nccnc1C(F)(F)F [Compound 19]	1.3	A (The EC50 value is lower than 0.5 ppm.)	–
O=C(NCCc1ccc(Cl)cc1F)c1nccnc1C(F)(F)F [Compound 20]	4.9	–	–
O=C(NCCc1ccc(Oc2ncc(C(F)(F)F)cc2Cl)cc1Cl)c1nccnc1C(F)(F)F [Compound 21]	1.3	A (The EC50 value is lower than 0.5 ppm.)	–
O=C(NCCc1ccc(Oc2ncc(C(F)(F)F)cc2Cl)cc1Cl)c1cccnc1Cl [Compound 22]	1.7	A (The EC50 value is lower than 0.5 ppm.)	–
CC(Cc1ccc(Cl)cc1F)NC(=O)c1nccnc1Cl (stereo not drawn) [Compound 23]	10	A (The EC50 value is lower than 0.5 ppm.)	–

Structure (SMILES)	IC50 [1, 3] [nM]	Grade (EC50, concentration required for 50% inhibition of the motor ability) [2]	IC50 [1] [nM]
O=C(NCCc1cc(F)c(Cl)cc1F)c1nccnc1C(F)(F)F [Compound 24]	2	A (The EC50 value is lower than 0.5 ppm.)	–
O=C(NCCc1cc(F)c(Cl)cc1F)c1cccnc1Cl [Compound 25]	18	A (The EC50 value is lower than 0.5 ppm.)	–
CC(Cc1cc(F)c(F)cc1Cl)NC(=O)c1nccnc1C(F)(F)F (stereo not drawn) [Compound 26]	2.9	–	–
O=C(NCCc1cc(F)c(F)cc1Cl)c1nccnc1C(F)(F)F [Compound 27]	2.2	–	–
O=C(NCCc1cc(F)c(Cl)cc1Cl)c1nccnc1C(F)(F)F [Compound 28]	1.3	A (The EC50 value is lower than 0.5 ppm.)	–
O=C(NCCc1cc(F)c(Cl)cc1Cl)c1cccnc1Cl [Compound 29]	6.7	–	–
Cc1cccnc1C(=O)NCCc1ccc(Cl)cc1Cl [Compound 30]	6	–	–
O=C(NCCc1ccc(Cl)cc1Cl)c1cnccc1C(F)(F)F [Compound 31]	42	–	–
O=C(NCCc1ccc(Cl)cc1Cl)C1=C(C(F)(F)F)OCCS1 [Compound 33]	–	A (The EC50 value is lower than 0.5 ppm.)	7.3
Cc1c(C(=O)NCCc2ccc(Cl)cc2Cl)c(C(F)(F)F)nn1C [Compound 35]	–	B (The EC50 value is 0.5 ppm or higher but lower than 5 ppm.)	–
Cc1nc(C(F)(F)F)c(C(=O)NCCc2ccc(Cl)cc2Cl)s1 [Compound 38]	–	B (The EC50 value is 0.5 ppm or higher but lower than 5 ppm.)	–
C[C@@H](Cn1nc(Br)c(Br)c1Br)NC(=O)c1cccnc1Cl [Compound 41]	42	–	–
C[C@@H](Cn1nc(Br)c(Br)c1Br)NC(=O)c1cccnc1C(F)(F)F [Compound 42]	13	–	–
C[C@@H](Cn1nc(C(F)(F)F)c(Cl)c1Cl)NC(=O)c1nccnc1C(F)(F)F [Compound 43]	9.9	–	–
C[C@@H](COc1ncc(C(F)(F)F)cc1Cl)NC(=O)c1cccnc1Cl [Compound 44]	20	–	–
O=C(NCCc1ccc(Oc2ccc(C(F)(F)F)cn2)cc1Cl)c1cccnc1Cl [Compound 45]	4.5	–	–
CC(Cc1ccc(Cl)cc1Cl)NC(=O)c1nccnc1I (stereo not drawn) [Compound 47]	–	–	2.3
Cc1nccnc1C(=O)NCCc1ccc(-c2ccc(OC(F)(F)F)cc2)cc1 [Compound 48]	–	A (The EC50 value is lower than 0.5 ppm.)	–
Cc1occc1C(=O)NCCc1ccc(Cl)cc1Cl [Compound 50]	1.6	–	–
